Consider 30 compounds from patent US12528818B2, “Compositions and methods for inhibition of RAS” (Leidos Biomedical Research, Inc., priority 2021, dated 2026).

The subject of the experiment is pERK in NCI-H358 cells. As to the kind of experiment: Cell-based pERK HTRF assay (pERK inhibition in H358 cells). To be noted: read-out: PERK in H358 cell. The method, then: On Day 1, cells (NCI-H358) were seeded into 96-well plates at 4×10^4 cells/well in complete growth media (RPMI, 10% FBS).
The source plate was created with compounds diluted in media at 5-fold the final assay concentration. […] 20 μL was transferred onto the cell plates (final volume in wells was 100 μL). Plates were harvested after 30 min incubation by aspirating media and adding kit-supplied 1× supplemented lysis buffer to all wells (75 μl per well). Plates were then placed on a plate shaker and incubated at 850 rpm for an additional 30 min.
Antibody mixture solution was prepared by diluting aliquoted d2 and Eu Cryptate antibodies 1:20 in kit supplied detection buffer, then mixed the diluted antibodies solutions (1:1 v:v).
Samples were homogenized by pipetting up and down and then transferred (16 μL of cell lysates) from the 96-well cell culture plate to two wells of the HTRF 384-well detection plate containing the antibody solution. Plates were centrifuged (524 g for 1 min) and allowed to incubate between 4 and 24 h at room temperature. Maximum signal is reached after 4 h incubation time and remains stable over a period of 24 hours. Therefore, readings can be made between 4 and 24 h of incubation.

[1] abbreviates: pERK inhibition IC50, NCI-H358 cells, 30 min incubation.
Where [2] appears, read: Homo sapiens, NCI-H358, 0.5 h, pERK inhibition IC50, NCI-H358 cells, 30 min incubation.

Each structure is given as a SMILES string. Like-named read-outs stand apart in the source and are kept apart here.

Take `C=CC(=O)N1CC[C@@H](N(C)c2nc(OC[C@@]34CCCN3C[C@H](F)C4)nc3c(Cl)c(-c4ccc(F)c5sc(N)nc45)c(C(F)(F)F)cc23)C1` (single isomer, unassigned) [Compound 303]: the IC50 under setting [1] was 0.1 to 1 µM. Regarding `C=CC(=O)N1C[C@H](C)N(c2nc(OC[C@@]34CCCN3C[C@H](F)C4)nc3c(F)c(-c4ccc(F)c5sc(N)c(C#N)c45)c(C(F)(F)F)cc23)C[C@H]1C` (single isomer, unassigned) [Compound 313], under setting [2], the IC50 was less than 0.1 µM. As to `C=CC(=O)N1C[C@H](C)N(c2nc(OC[C@@]34CCCN3C[C@H](F)C4)nc3c(F)c(-c4ccc(F)c5sc(N)c(C#N)c45)c(C(F)(F)F)cc23)C[C@H]1C` (single isomer, unassigned) [Compound 314], under setting [1], the IC50 lay in the range of 0.1 to 1 µM. Same read-out and setting: with `C=CC(=O)N1CC[C@@H](N(C)c2nc(OC[C@@]34CCCN3C[C@H](F)C4)nc3c(F)c(-c4ccc(F)c5sc(N)c(C#N)c45)c(C(F)(F)F)cc23)[C@H]1C` (single isomer, unassigned) [Compound 434] the figure was less than 0.1 µM. The same measure, in the same setting: to `C=CC(=O)N1CC[C@@H](N(C)c2nc(OC[C@@]34CCCN3C[C@H](F)C4)nc3c(F)c(-c4ccc(F)c5sc(N)c(C#N)c45)c(C(F)(F)F)cc23)[C@H]1C` (single isomer, unassigned) [Compound 435] belongs greater than 1 µM. As for `C=CC(=O)N1C[C@H](C)N(c2nc(OC[C@@H]3CCCN3C)nc3c(F)c(-c4ccc(F)c5sc(N)c(C#N)c45)c(C(F)(F)F)cc23)C[C@H]1C` (single isomer, unassigned) [Compound 458], under setting [2], the IC50 was less than 0.1 µM. On the same count and under the same terms, with `C=CC(=O)N1CC[C@H](N(C)c2nc(OC[C@@]34CCCN3C[C@H](F)C4)nc3c(F)c(-c4ccc(F)c5sc(N)c(C#N)c45)c(C(F)(F)F)cc23)[C@@H]1C` (single isomer, unassigned) [Compound 472] the figure was less than 0.1 µM. Take `C=CC(=O)N1CC[C@H](N(C)c2nc(OC[C@@]34CCCN3C[C@H](F)C4)nc3c(F)c(-c4ccc(F)c5sc(N)c(C#N)c45)c(C(F)(F)F)cc23)[C@@H]1C` (single isomer, unassigned) [Compound 473]: the IC50 under setting [1] is less than 0.1 µM. As for `C=CC(=O)N1CC(Nc2nc(OC[C@@H]3CCCN3C)nc3c(F)c(-c4ccc(F)c5sc(N)nc45)c(Cl)cc23)C1` [Compound 23, 1-(3-((7-(2-amino-7-fluorobenzo[d]thiazol-4-yl)-6-chloro-8-fluoro-2-(((S)-1-methylpyrrolidin-2-yl)methoxy)quinazolin-4-yl)amino)azetidin-1-yl)prop-2-en-1-one], under setting [2], the IC50 is greater than 1 µM. Consider `CN1CCC[C@H]1COc1nc(NC2CN(C#N)C2)c2cc(Cl)c(-c3ccc(F)c4sc(N)nc34)c(F)c2n1` [Compound 40, 3-((7-(2-amino-7-fluorobenzo[d]thiazol-4-yl)-6-chloro-8-fluoro-2-(((S)-1-methylpyrrolidin-2-yl)methoxy)quinazolin-4-yl)amino)azetidine-1-carbonitrile], for which the IC50 (Homo sapiens, NCI-H358, 0.5 h) was 0.1 to 1 µM. Consider `C=CC(=O)N1CC(Nc2nc(OC[C@@H]3CCCN3C)nc3c(F)c(-c4ccc(F)c5sc(N)nc45)ncc23)C1` [Compound 43], for which the IC50 under setting [2] is greater than 1 µM. Take `C=CC(=O)N1CCN(c2nc(OC[C@@H]3CCCN3C)nc3c(F)c(-c4ccc(F)c5sc(N)nc45)c(Cl)cc23)CC1` [Compound 44]: the IC50 under setting [2] was less than 0.1 µM. Regarding `N#CN1CC(Nc2ncnc3c(F)c(-c4ccc(F)c5sc(N)nc45)c(C(F)(F)F)cc23)C1` [Compound 45], the IC50 under setting [2] is less than 0.1 µM. Same read-out and setting: to `C=CC(=O)N1CC(Nc2nc(OCC34CCCN3CCC4)nc3c(F)c(-c4ccc(F)c5sc(N)nc45)c(Cl)cc23)C1` [Compound 49, 1-(3-((7-(2-amino-7-fluorobenzo[d]thiazol-4-yl)-6-chloro-8-fluoro-2-((tetrahydro-1H-pyrrolizin-7a(5H)-yl)methoxy)quinazolin-4-yl)amino)azetidin-1-yl)prop-2-en-1-one] belongs greater than 1 µM; to `CN1CCC[C@H]1COc1nc(NC2CCN(C#N)C2)c2cc(Cl)c(-c3ccc(F)c4sc(N)nc34)c(F)c2n1` (stereo partly drawn) [Compound 51], 0.1 to 1 µM.

Take `C=CC(=O)N1CCC(Nc2nc(OC[C@@H]3CCCN3C)nc3c(F)c(-c4ccc(F)c5sc(N)nc45)c(Cl)cc23)C1` (stereo partly drawn) [Compound 52]: the IC50 under setting [2] was greater than 1 µM.

On to `CN1CCC[C@H]1COc1nc(NC2CCCN(C#N)C2)c2cc(Cl)c(-c3ccc(F)c4sc(N)nc34)c(F)c2n1` (stereo partly drawn) [Compound 53], for which, under setting [2], the IC50 was greater than 1 µM. Take `C=CC(=O)N1CCCC(Nc2nc(OC[C@@H]3CCCN3C)nc3c(F)c(-c4ccc(F)c5sc(N)nc45)c(Cl)cc23)C1` (stereo partly drawn) [Compound 54]: the IC50 under setting [2] is 0.1 to 1 µM.

For the compound `CN1CCC[C@H]1COc1nc(NC2CCN(C#N)CC2)c2cc(Cl)c(-c3ccc(F)c4sc(N)nc34)c(F)c2n1` [Compound 55], under setting [2], the IC50 is greater than 1 µM. On the same count and under the same terms, with `N#CN1CC(Nc2nc(OCC34CCCN3CCC4)nc3c(F)c(-c4ccc(F)c5sc(N)nc45)c(Cl)cc23)C1` [Compound 58] the figure was 0.1 to 1 µM. Regarding `C=CC(=O)N1CC(Nc2nc(C3CCN(C)CC3)nc3c(F)c(-c4ccc(F)c5sc(N)nc45)c(Cl)cc23)C1` [Compound 60], under setting [2], the IC50 is greater than 1 µM.

For `C=CC(=O)N1CC(Nc2nc(OC[C@@H]3C[C@@H](F)CN3C)nc3c(F)c(-c4ccc(F)c5sc(N)nc45)c(Cl)cc23)C1` [Compound 63], under setting [2], the IC50 was in the range of 0.1 to 1 µM. The same measure, in the same setting: to `C=CC(=O)NCCNc1nc(C2CCN(C)CC2)nc2c(F)c(-c3ccc(F)c4sc(N)nc34)c(Cl)cc12` [Compound 64] belongs greater than 1 µM; to `C=CC(=O)N1CC[C@@H]2[C@H]1CN2c1nc(OCC23CCCN2CCC3)nc2c(F)c(-c3ccc(F)c4sc(N)nc34)c(Cl)cc12` [Compound 65], 0.1 to 1 µM. In the case of `C=CC(=O)N1CC[C@@H]2[C@H]1CN2c1nc(OC[C@@H]2CCCN2C)nc2c(F)c(-c3ccc(F)c4sc(N)nc34)c(Cl)cc12` [Compound 66], the IC50 under setting [2] is less than 0.1 µM. For `C=CC(=O)N1CCN(c2nc(OCC34CCCN3CCC4)nc3c(F)c(-c4ccc(F)c5sc(N)nc45)c(Cl)cc23)CC1` [Compound 67], the IC50 under setting [2] is less than 0.1 µM.

With `C=CC(=O)N1CC(Nc2ncnc3c(F)c(-c4ccc(F)c5sc(N)nc45)cc(OC)c23)C1` [Compound 69, 1-(3-((7-(2-amino-7-fluorobenzo[d]thiazol-4-yl)-8-fluoro-5-methoxyquinazolin-4-yl)amino)azetidin-1-yl)prop-2-en-1-one], under setting [2], the IC50 was greater than 1 µM. Regarding `C=CC(=O)N1CC(Nc2nc(OCC34CCCN3CCC4)nc3c(F)c(-c4ccc(F)c5sc(N)nc45)c(-c4ccoc4)cc23)C1` [Compound 70, 1-(3-((7-(2-amino-7-fluorobenzo[d]thiazol-4-yl)-8-fluoro-6-(furan-3-yl)-2-((tetrahydro-1H-pyrrolizin-7a(5H)-yl)methoxy)quinazolin-4-yl)amino)azetidin-1-yl)prop-2-en-1-one], the IC50 under setting [2] was greater than 1 µM. Still for that read-out and setting: to `C=CC(=O)N1CCN(c2nc(OC[C@@H]3CCCN3C)nc3c(F)c(-c4ccc(F)c5sc(N)nc45)c(C(F)(F)F)cc23)CC1` [Compound 71, 1-(4-(7-(2-amino-7-fluorobenzo[d]thiazol-4-yl)-8-fluoro-2-(((S)-1-methylpyrrolidin-2-yl)methoxy)-6-(trifluoromethyl)quinazolin-4-yl)piperazin-1-yl)prop-2-en-1-one] belongs less than 0.1 µM.

Regarding `C=CC(=O)N1CCN(c2ncnc3c(F)c(-c4ccc(F)c5sc(N)nc45)c(CC#N)cc23)CC1` [Compound 72], the IC50 under setting [2] was greater than 1 µM.
